Reference: PMC10583863 (European journal of medicinal chemistry, 2022)
≈ marks a conversion by molar mass, not a printed value. Read-outs that look alike come from different tables or passages of the source.

Tests used:
[1] = tested on: M. marinum infected zebrafish larvae; assay: Zebrafish larvae model of M. marinum infection; format: in vivo; settings: caudal vein microinjection, ca. 6–8 ng, by tendency
[2] = tested on: M. tuberculosis H37Rv; assay: microbe, parasite or virus in culture; format: cell-based, Mycobacterium tuberculosis; settings: for MIC90: Mycobacterium tuberculosis, H37RV, read-out: MIC90 MtbH37Rv
[3] = in words; cited from earlier work
[4] = introduction, earlier work; cited from earlier work
[5] = tested on: M. tuberculosis H37Rv; settings: activity already reported, cited from earlier work
[6] = tested on: M. abscessus Bamboo; assay: MIC by broth microdilution, NTM; settings: especially against M. abscessus Bamboo; weak
[7] = Metabolic stability in human liver microsomes; format: in vitro ADME; settings: 60 min incubation
[8] = tested on: Ty1 (Rv3405c, c190t); assay: MIC by micro-broth dilution method, Mtb panel; format: cell-based; settings: Mycobacterium tuberculosis
[9] = tested on: H37Rv; assay: MIC by micro-broth dilution method, Mtb panel; format: cell-based, Mycobacterium tuberculosis; settings: strain H37Rv
[10] = tested on: 81.10 (ethA, Δ1109–37); format: cell-based; settings: strain 81.10 (ethA, Δ1109–37)

Row | SMILES | MIC90 [2] | other results
1 | Cc1ccc(Nc2nc(-c3cc(C(=O)Nc4ccccc4)no3)cs2)cc1 [Compound 3] | 2.7 µM | granuloma formation [1]: granuloma formation was slightly less pronounced than in the untreated control group; reactivity to glutathione [3]: ruling out the possibility of indiscriminate reactivity toward biological nucleophiles
2 | Cc1ccc(Nc2nc(-c3cc(C(=O)Nc4ccccn4)no3)cs2)cc1 [Compound 4] | 1.3 µM | reactivity to glutathione [3]: ruling out the possibility of indiscriminate reactivity toward biological nucleophiles; half-life in human liver microsomes (HLM) [4]: 35 ± 0.8 min
3 | Cc1ccc(Nc2nc(-c3cc(C(=O)Nc4ccc(F)cc4)no3)cs2)cc1 [Compound 9a] | 2.5 µM | –
4 | Cc1ccc(Nc2nc(-c3cc(C(=O)Nc4cccc(F)c4)no3)cs2)cc1 [Compound 10a] | 6.3 µM | –
5 | Cc1ccc(Nc2nc(-c3cc(C(=O)Nc4ccccc4F)no3)cs2)cc1 [Compound 11a] | 2.5 µM | –
6 | Cc1ccc(NC(=O)c2cc(-c3csc(Nc4ccc(C)cc4)n3)on2)cc1 [Compound 14a] | 2.6 µM | –
7 | Cc1ccc(Nc2nc(-c3cc(C(=O)Nc4cccc(C)c4)no3)cs2)cc1 [Compound 15a] | 1.3 µM | –
8 | Cc1ccc(Nc2nc(-c3cc(C(=O)Nc4ccccc4C)no3)cs2)cc1 [Compound 16a] | 2.5 µM | –
9 | Cc1ccc(Nc2nc(-c3cc(C(=O)Nc4ccc(O)cc4)no3)cs2)cc1 [Compound 20a] | 1.3 µM | –
10 | Cc1ccc(Nc2nc(-c3cc(C(=O)Nc4ccc(O)cc4)no3)cs2)cc1O [Compound 20e] | 12.2 µM | –
11 | Cc1ccc(Nc2nc(-c3cc(C(=O)Nc4cccc(O)c4)no3)cs2)cc1 [Compound 21a] | 1.3 µM | –
12 | Cc1ccc(Nc2nc(-c3cc(C(=O)Nc4ccccc4O)no3)cs2)cc1 [Compound 22a] | 1.3 µM | –
13 | Cc1ccc(Nc2nc(-c3cc(C(=O)Nc4ccncc4)no3)cs2)cc1 [Compound 23a] | 2.6 µM | –
14 | Cc1ccc(Nc2nc(-c3cc(C(=O)Nc4cccnc4)no3)cs2)cc1 [Compound 24a] | 26 µM | –
15 | Cc1ccc(Nc2nc(-c3cc(C(=O)Nc4cc(C)ccn4)no3)cs2)cc1 [Compound 27a] | 2.6 µM | –
16 | Cc1ccc(Nc2nc(-c3cc(C(=O)Nc4ccsc4)no3)cs2)cc1 [Compound 32a] | 2.6 µM | –
17 | O=C(Nc1ccccc1)c1cc(-c2csc(Nc3cc(Cl)cc(Cl)c3)n2)on1 [Compound 35b] | – | MIC90 MtbH37Rv [5]: >20 µg/mL
18 | Cc1cc(C)cc(Nc2nc(-c3cc(C(=O)Nc4ccccc4)no3)cs2)c1 [Compound 35d] | 2.5 µM | –
19 | O=C(Nc1ccccn1)c1cc(-c2csc(Nc3cc(Cl)cc(Cl)c3)n2)on1 [Compound 36b] | – | MIC90 MtbH37Rv [5]: >20 µg/mL
20 | Cc1ccc(Nc2nc(-c3cc(C(=O)Nc4ccccc4)no3)cs2)cc1O [Compound 42e] | 6.3 µM | antitubercular whole cell activity in words [2]: retained a certain activity
21 | O=C(Nc1ccccc1)c1cc(-c2csc(Nc3ccccc3)n2)on1 [Compound 42g] | 3.4 µM | inhibitory activity in words [6]: concentration-dependent inhibitory activity
22 | Nc1nc(-c2cc(C(=O)Nc3ccccc3)no2)cs1 [Compound 42i] | – | metabolic stability in HLM in words [7]: did not show any significant biotransformation
23 | O=C(Nc1ccccc1)c1cc(-c2csc(Nc3cc(Cl)c(Cl)c(Cl)c3)n2)on1 [Compound 42j] | – | metabolic stability in HLM in words [7]: did not show any significant biotransformation

Row | SMILES | MIC90 [2] | other results
24 | O=C(Nc1ccccc1)c1cc(-c2csc(Nc3ccc(Cl)cc3)n2)on1 [Compound 42l] | 3.2 µM | –
25 | O=C(Nc1ccccc1)c1cc(-c2csc(Nc3cccc(O)c3)n2)on1 [Compound 42m] | 13.2 µM | –
26 | O=C(Nc1ccccc1)c1cc(-c2csc(Nc3ccc(CO)cc3)n2)on1 [Compound 42n, 5-(2-((4-(hydroxymethyl)phenyl)amino)thiazol-4-yl)-N-phenylisoxazole-3-carboxamide] | – | antitubercular whole cell activity in words [2]: no whole cell activity
27 | Cc1ccc(Nc2nc(-c3cc(C(=O)Nc4ccccn4)no3)cs2)cc1O [Compound 43e] | 12.6 µM | antitubercular whole cell activity in words [2]: retained a certain activity
28 | O=C(Nc1ccccn1)c1cc(-c2csc(Nc3ccccc3)n2)on1 [Compound 43g] | – | inhibitory activity in words [6]: concentration-dependent inhibitory activity
29 | Nc1nc(-c2cc(C(=O)Nc3ccccn3)no2)cs1 [Compound 43i] | – | metabolic stability in HLM in words [7]: did not show any significant biotransformation
30 | O=C(Nc1ccccn1)c1cc(-c2csc(Nc3cc(Cl)c(Cl)c(Cl)c3)n2)on1 [Compound 43j] | – | metabolic stability in HLM in words [7]: did not show any significant biotransformation
31 | O=C(Nc1ccccn1)c1cc(-c2csc(Nc3ccc(CO)cc3)n2)on1 [Compound 43n, 5-(2-((4-(hydroxymethyl)phenyl)amino)thiazol-4-yl)-N-(pyridin-2-yl)isoxazole-3-carboxamide] | – | antitubercular whole cell activity in words [2]: no whole cell activity
32 | Cc1ccc(Nc2nc(-c3cc(C(=O)Nc4ccccc4)no3)co2)cc1 [Compound 47] | 2.8 µM | –
33 | Cc1ccc(Nc2nc(-c3cc(C(=O)Nc4ccccn4)no3)co2)cc1 [Compound 48] | – | MIC90 MtbH37Rv ([5]; value in brackets): 6.9 µM
34 | CCOC(=O)c1cc(-c2cccc(Nc3ccc(C)cc3)n2)on1 [Compound 53, Ethyl 5-(6-(p-tolylamino)pyridin-2-yl)isoxazole-3-carboxylate] | 3.8 µM | –
35 | O=C(Nc1ccccc1)c1cc(C(=O)Nc2nc3ccccc3s2)on1 [Compound 58a] | > 40 µg/mL | –
36 | Cc1ccc2nc(NC(=O)c3cc(C(=O)Nc4ccccn4)no3)sc2c1 [Compound 58b] | > 40 µg/mL | –
37 | O=C(Nc1ccccn1)c1cc(C(=O)Nc2nc3ccccc3s2)on1 [Compound 59a] | > 40 µg/mL | –
38 | Cc1ccc2nc(NC(=O)c3cc(C(=O)Nc4ccccc4)no3)sc2c1 [Compound 59b] | > 40 µg/mL | –
39 | Cc1cccc(NC(=O)c2cc(C(=O)Nc3nc4ccccc4s3)on2)c1 [Compound 60a] | > 40 µg/mL | –
40 | Cc1cccc(NC(=O)c2cc(C(=O)Nc3nc4ccc(C)cc4s3)on2)c1 [Compound 60b] | > 40 µg/mL | –
41 | COc1ccc2sc(NC(=O)c3cc(C(=O)Nc4cccc(C)c4)no3)nc2c1 [Compound 60c] | > 40 µg/mL | –
42 | O=C(Nc1ccc(O)cc1)c1cc(C(=O)Nc2nc3ccccc3s2)on1 [Compound 61a] | > 40 µg/mL | –
43 | Cc1ccc2nc(NC(=O)c3cc(C(=O)Nc4ccc(O)cc4)no3)sc2c1 [Compound 61b] | > 40 µg/mL | –
44 | O=C(Nc1cccc(F)c1)c1cc(C(=O)Nc2nc3ccccc3s2)on1 [Compound 62a] | > 40 µg/mL | –
45 | O=C(Nc1cccc(O)c1)c1cc(C(=O)Nc2nc3ccccc3s2)on1 [Compound 63a] | > 40 µg/mL | –
46 | NNC(=O)c1ccncc1 [INH, Isoniazide] | – | MIC90 [8]: 0.025 µg/mL (≈ 0.182 µM); MIC90 [9]: 0.025 µg/mL (≈ 0.182 µM); MIC90 MtbH37Rv ([2]; REMA method, M. tuberculosis H37Rv): 0.025 µg/mL (≈ 0.182 µM); MIC90 [10]: 0.025 µg/mL (≈ 0.182 µM)
